Reference: ChEMBL document CHEMBL3085716, “Hytramycins V and I, anti-Mycobacterium tuberculosis hexapeptides from a Streptomyces hygroscopicus strain” (J Nat Prod, 2013)
In brackets after ≈: the same amount, converted by molar mass.

Tests used:
Streptococcus pneumoniae = experiment: Antibacterial activity against Streptococcus pneumoniae ATCC 49619 after 20 hrs; format: functional; settings: ATCC 49619, 20 h
Enterococcus faecalis = experiment: Antibacterial activity against Enterococcus faecalis ATCC 29212 after 16 hrs; format: functional; settings: ATCC 29212, 16 h
[1] = tested on: Mycobacterium tuberculosis; experiment: Antimycobacterial activity against Mycobacterium tuberculosis H37Rv under normoxic condition after 7 days by MABA assay in presence of 10% fetal bovine serum; format: functional; settings: 168 h
[2] = tested on: Mycobacterium tuberculosis; experiment: Antimycobacterial activity against Mycobacterium tuberculosis H37Rv under normoxic condition after 7 days by MABA assay in presence of 4% bovine serum albumin; format: functional; settings: 168 h
[3] = tested on: Mycolicibacterium smegmatis; experiment: Antimycobacterial activity against Mycobacterium smegmatis ATCC 700084 under normoxic condition after 72 hrs by MABA assay; format: functional; settings: ATCC 700084, 72 h
[4] = tested on: Mycobacterium tuberculosis; experiment: Antimycobacterial activity against Mycobacterium tuberculosis clinical isolate X005319 under normoxic condition after 7 days by MABA assay; format: functional; settings: clinical isolate X005319, 168 h
[5] = tested on: Mycobacterium tuberculosis; experiment: Antimycobacterial activity against Mycobacterium tuberculosis clinical isolate X005282 under normoxic condition after 7 days by MABA assay; format: functional; settings: clinical isolate X005282, 168 h
[6] = tested on: Mycobacterium tuberculosis; experiment: Antimycobacterial activity against Mycobacterium tuberculosis clinical isolate X004439 under normoxic condition after 7 days by MABA assay; format: functional; settings: clinical isolate X004439, 168 h
[7] = tested on: Mycobacterium tuberculosis; experiment: Antimycobacterial activity against Mycobacterium tuberculosis clinical isolate X004244 under normoxic condition after 7 days by MABA assay; format: functional; settings: clinical isolate X004244, 168 h
[8] = tested on: Mycobacterium tuberculosis; experiment: Antimycobacterial activity against Mycobacterium tuberculosis clinical isolate X003899 under normoxic condition after 7 days by MABA assay; format: functional; settings: clinical isolate X003899, 168 h
[9] = tested on: Mycobacterium tuberculosis; experiment: Antimycobacterial activity against Mycobacterium tuberculosis clinical isolate X001354 under normoxic condition after 7 days by MABA assay; format: functional; settings: clinical isolate X001354, 168 h
[10] = tested on: Mycobacterium tuberculosis; experiment: Antimycobacterial activity against Mycobacterium tuberculosis H37Rv under normoxic condition after 7 days by MABA assay; format: functional; settings: for MIC90: Mycobacterium tuberculosis, H37Rv, 168 h
Acinetobacter baumannii = experiment: Antibacterial activity against Acinetobacter baumannii ATCC BAA-747 after 16 hrs; format: functional; settings: for MIC90: ATCC BAA-747, 16 h
Candida albicans = experiment: Antifungal activity against Candida albicans ATCC 10231 after 48 hrs; format: functional; settings: ATCC 10231, 48 h
Pseudomonas aeruginosa = experiment: Antibacterial activity against Pseudomonas aeruginosa ATCC 27853 after 16 hrs; format: functional; settings: for MIC90: ATCC 27853, 16 h
Vero = experiment: Cytotoxicity against african green monkey Vero cells; format: cell-based; settings: Chlorocebus sabaeus
Staphylococcus aureus = experiment: Antibacterial activity against Staphylococcus aureus ATCC 29213 after 16 hrs; format: functional
Escherichia coli = experiment: Antibacterial activity against Escherichia coli ATCC 25922 after 16 hrs; format: functional

Row | Compound | MIC90 (Streptococcus pneumoniae) [µg/mL] | MIC90 (Enterococcus faecalis) [µg/mL] | MIC90 [1] [µg/mL] | MIC90 [2] [µg/mL] | MIC90 [4] [µg/mL] | MIC90 [5] [µg/mL] | MIC90 [6] [µg/mL] | MIC90 [7] [µg/mL] | MIC90 [8] [µg/mL] | MIC90 [9] [µg/mL] | MIC90 [10] [µg/mL] | also measured
1 | CC[C@H]1OC(=O)[C@H](C)[C@@H](O[C@H]2C[C@@](C)(OC)[C@@H](O)[C@H](C)O2)[C@H](C)[C@@H](O[C@@H]2O[C@H](C)C[C@H](N(C)C)[C@H]2O)[C@](C)(O)C[C@@H](C)C(=O)[C@H](C)[C@@H](O)[C@]1(C)O [ERYTHROMYCIN] | 0.1 (≈ 0.136 µM) | 1.9 (≈ 2.59 µM) |  |  |  |  |  |  |  |  |  | 
2 | NNC(=O)c1ccncc1 [ISONIAZID] |  |  | 0.04 | 0.1 | 0.9 (≈ 6.56 µM) | 0.1 (≈ 0.729 µM) | 0.1 (≈ 0.729 µM) | > 1.1 | 0.1 (≈ 0.729 µM) | 0.1 (≈ 0.729 µM) | 0.03 (≈ 0.219 µM) | MIC90 [3]: 12.7 µg/mL (≈ 92.6 µM)
3 | NC[C@H]1O[C@H](O[C@H]2[C@H](O)[C@@H](O[C@H]3O[C@H](CO)[C@@H](O)[C@H](N)[C@H]3O)[C@H](N)C[C@@H]2N)[C@H](O)[C@@H](O)[C@@H]1O [KANAMYCIN] |  |  |  |  |  |  |  |  |  |  |  | MIC90 (Acinetobacter baumannii): 0.7 µg/mL (≈ 1.44 µM)
4 | CC(=O)N1CCN(c2ccc(OCC3COC(Cn4ccnc4)(c4ccc(Cl)cc4Cl)O3)cc2)CC1 (stereo not drawn) [KETOCONAZOLE] |  |  |  |  |  |  |  |  |  |  |  | MIC90 (Candida albicans): < 4 ng/mL
5 | Cc1ncc([N+](=O)[O-])n1CCO [METRONIDAZOLE] |  |  | > 87.6 | > 87.6 | > 87.6 | > 87.6 | > 87.6 | > 87.6 | > 87.6 | > 87.6 | > 87.6 | 
6 | CN(C)c1ccc(O)c2c1C[C@H]1C[C@H]3[C@H](N(C)C)C(O)=C(C(N)=O)C(=O)[C@@]3(O)C(O)=C1C2=O [MINOCYCLINE] |  |  |  |  |  |  |  |  |  |  |  | MIC90 (Acinetobacter baumannii): 0.2 µg/mL (≈ 0.437 µM)
7 | CC1COc2c(N3CCN(C)CC3)c(F)cc3c(=O)c(C(=O)O)cn1c23 (stereo not drawn) [OFLOXACIN] | 1.1 (≈ 3.04 µM) | 2.3 (≈ 6.36 µM) |  |  |  |  |  |  |  |  |  | MIC90 (Pseudomonas aeruginosa): 1.2 µg/mL (≈ 3.32 µM)
8 | CO[C@H]1/C=C/O[C@@]2(C)Oc3c(C)c(O)c4c(O)c(c(/C=N/N5CCN(C)CC5)c(O)c4c3C2=O)NC(=O)/C(C)=C\C=C\[C@H](C)[C@H](O)[C@@H](C)[C@@H](O)[C@@H](C)[C@H](OC(C)=O)[C@@H]1C [RIFAMPIN] | < 0.01 | 0.2 (≈ 0.243 µM) | < 0.02 | 0.02 | 0.1 (≈ 0.122 µM) | 0.03 (≈ 0.0365 µM) | 0.02 (≈ 0.0243 µM) | 0.1 (≈ 0.122 µM) | 0.1 (≈ 0.122 µM) | 0.02 (≈ 0.0243 µM) | < 0.02 | MIC90 (Pseudomonas aeruginosa): 17.8 µg/mL (≈ 21.6 µM); MIC90 [3]: < 0.3 µg/mL; IC50 (Vero): 143 µg/mL (≈ 174 µM); MBC90 [10]: 0.1 µg/mL (≈ 0.122 µM)
9 | CN[C@@H]1[C@H](O[C@H]2[C@H](O[C@H]3[C@H](O)[C@@H](O)[C@H](N=C(N)N)[C@@H](O)[C@@H]3N=C(N)N)O[C@@H](C)[C@]2(O)C=O)O[C@@H](CO)[C@H](O)[C@H]1O [STREPTOMYCIN] |  |  | 0.6 | 0.8 | 1 (≈ 1.72 µM) | 0.6 (≈ 1.03 µM) | 0.3 (≈ 0.516 µM) | 0.3 (≈ 0.516 µM) | 0.2 (≈ 0.344 µM) | 0.4 (≈ 0.688 µM) | 0.3 (≈ 0.516 µM) | MIC90 [3]: 0.1 µg/mL (≈ 0.172 µM)
10 | CN[C@H](CC(C)C)C(=O)N[C@H]1C(=O)N[C@@H](CC(N)=O)C(=O)N[C@H]2C(=O)N[C@H]3C(=O)N[C@H](C(=O)N[C@H](C(=O)O)c4cc(O)cc(O)c4-c4cc3ccc4O)[C@H](O)c3ccc(c(Cl)c3)Oc3cc2cc(c3O[C@@H]2O[C@H](CO)[C@@H](O)[C@H](O)[C@H]2O[C@H]2C[C@](C)(N)[C@H](O)[C@H](C)O2)Oc2ccc(cc2Cl)[C@H]1O [VANCOMYCIN] | 0.1 (≈ 0.069 µM) | 2.3 (≈ 1.59 µM) |  |  |  |  |  |  |  |  |  | 
11 | GENTAMICIN |  |  |  |  |  |  |  |  |  |  |  | MIC>90 (Pseudomonas aeruginosa): 0.5 µg/mL; MIC>90 (Staphylococcus aureus): 0.6 µg/mL; MIC>90 (Escherichia coli): 1.2 µg/mL; MIC>90 (Acinetobacter baumannii): 0.2 µg/mL
